Among the data in a melting point compilation (Tetko et al.; mined from patent text by program, amines drawn as free bases though some values may be those of a salt) are melting point values, retold here.

Each structure is given as a SMILES string.

`COc1cc2nc(N(C)C)nc(N)c2cc1OC` returned a melting point of 223 to 224 °C.

`CCN(CC)C(=O)N[C@H]1CC[C@H](NC(=O)N(CC)CC)CC1` showed a melting point of 225 to 228 °C.

As to `CCCNC(=O)C(C)=Cc1ccc2c(c1)c(Cc1ccc(C(=O)NS(=O)(=O)c3ccccc3C)cc1OC)cn2CC(=O)N(C)C`, the melting point fell in the range of 230 to 231 °C.

`CCCNc1sc(C(N)=O)c2c1-c1c(cnn1C)CC2` showed a melting point of 207 to 208 °C.

With `C#Cc1cc(Nc2ncnc3cnc(NC(=O)/C=C/CN(C)C)cc23)ccc1Cl`, the melting point fell in the range of 173 to 176 °C.

Consider `CCCCCCCCCCCCCCCCCCC(=O)Nc1ccc(O)cc1`, for which the melting point came out at 138 °C.

On to `Cc1ccc([N+](=O)[O-])c(C(=O)Nc2ccc(-n3nc(C(F)(F)F)cc3C(F)(F)F)cc2)c1`, for which the melting point lay within 188 to 189 °C.

`CCCCc1nc2c(N)nc3ccccc3c2n1CCCCNC(=O)Nc1ccccc1` came in with a melting point of 185 to 187 °C.

As for `C[Si](C)(C)C#Cc1ccc(C#Cc2ccc(F)cc2)cc1`, the melting point lay within 144 to 146 °C.

`CN(C)S(=O)(=O)c1cccc(S(N)(=O)=O)c1`: the melting point lay within 101 to 106 °C.

In the case of `COc1ccc(Cl)c(C(N)=O)c1F`, the melting point lay within 154 to 156 °C.

Compound `CC(CCCC(C)(C)O)C1CCC2C3CCC4(O)CC(O)CCC4(C)C3CCC12C` (stereo not given) registered a melting point of 202 to 204 °C.

`Cc1cccc(NCC(C)Br)c1C` (stereo not given): the melting point lay within 55 to 58 °C.

Regarding `COc1cc(-c2csc(N)n2)cc([N+](=O)[O-])c1O`, the melting point lay in the range of 248 to 250 °C.

With `COc1nc(C(F)F)cnc1NS(=O)(=O)c1cccc(Cl)c1Cl`, the melting point lay within 117 to 118 °C.

Regarding `NC(=O)c1ccc(C(c2ccccc2[N+](=O)[O-])(C(F)(F)F)C(F)(F)F)cc1`, the melting point lay in the range of 147 to 148 °C.

In the case of `CS(=O)(=O)CN=C(N)NCCSCc1csc(NC(N)=NCC(F)(F)C(F)(F)F)n1`, the melting point was 149 to 151 °C.

In turn, `CN(C)c1ncnc2[nH]c(-c3ccc(CO)cc3)cc12` gave a melting point of 306 to 309 °C.

As for `Cc1nc[nH]c1CSCCN=C(NC#N)NCCO`, the melting point was in the range of 146 to 147 °C.

The compound `CN1Cc2ccccc2C(=O)c2cc(CC(=O)O)cc([N+](=O)[O-])c21` displayed a melting point of 184 to 186 °C.

`O=C(O)C1CCN(c2nnc(NCc3ccc4c(c3)OCO4)c3ccncc23)CC1` came in with a melting point of 138 to 140 °C.

Turning to `O=c1c(C(F)(F)F)cn(Cc2ccccc2)c(=O)n1CCCCl`, the melting point was in the range of 100 to 101 °C.

The compound `CCCC(C(=O)O)C1(c2ccccc2)CC(O)=C(Sc2ccccc2C(C)C)C(=O)O1` (stereo not given) showed a melting point of 145 to 146 °C.

`Cc1cc(N2C(=O)c3ccccc3C2=O)c(C)cc1N=CN(C)C` showed a melting point of 170 to 173 °C.

Turning to `CCc1onc(-c2ccccc2)c1C(=O)NCCCCl`, the melting point was 75 to 76 °C.

Regarding `OCCN1CCC(OC(c2ccccc2)c2ccccc2)CC1`, the melting point lay within 83 to 85 °C.

Compound `COC(=O)c1cccc(/C=C/c2cc3ccccc3o2)c1` showed a melting point of 98 to 100 °C.

`Cc1cc(C(C)(C)C)c(O)c(C)c1COC(=O)CCCCC(=O)OCc1c(C)cc(C(C)(C)C)c(O)c1C`: the melting point fell in the range of 156 to 158 °C.

The compound `COc1ccc(C(=O)C=Cc2ccc(N(C)C)cc2)c(OC)c1OC` yielded a melting point of 88 to 89 °C.

`N#CCC(O)(Cn1cncn1)c1ccc(Cl)cc1Cl` (stereo not given) came in with a melting point of 217 to 219 °C.

In turn, `COc1cc2c(cc1Nc1ncc(Cl)c(Nc3ccc(N4CCOCC4)cc3OC)n1)CCN(CCNC(C)=O)CC2` registered a melting point of 50 to 65 °C.

With `CCc1nnc(-c2ccc(OC)cc2)n1-c1ccc(C(=O)N(C)C)cc1`, the melting point was 136 °C.

For `COc1ccc(CSc2cccnc2C(=O)O)cc1`, the melting point fell in the range of 170 to 172 °C.

`COC(=O)c1ccc(-c2ccc(C#N)s2)nc1` registered a melting point of 164 to 166 °C.

For the compound `COc1ccc(N2C(=O)C(N3C(=O)c4ccccc4C3=O)C2c2ccc(C(=O)O)cc2)cc1` (stereo not given), the melting point is 265 °C.
